{
  "source": "patent US9708314B2",
  "about": "“Heterocyclic amide compound” (NISSAN CHEMICAL INDUSTRIES, LTD., priority 2013, dated 2017)",
  "assay_type_in_all_cases": "in vivo",
  "key": {"Glycine max": {"test_system": "Glycine max", "experiment": "Test Example 4: effect on crop by application to foliage (diluvial soil, plastic box)", "settings": "320 g/ha", "how_it_was_run": "(§1)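 Seeds sown in sterilized diluvial soil, covered ~1.5 cm, grown 14 days in greenhouse at 25° C. to 30° C. Emulsion formulation diluted in water to set rate (g/ha) and sprayed onto stems and leaves. Effect scored visually 3 weeks later on 0–5 scale (5 = ≥90% herbicidal ratio, 0 = ≤5%).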"}, "[1]": {"test_system": "directly sowed Oryza sativa", "experiment": "Test Example 4: effect on crop by application to foliage (diluvial soil, plastic box)", "settings": "320 g/ha", "how_it_was_run": "as §1"}, "Zea mays": {"test_system": "Zea mays", "experiment": "Test Example 4: effect on crop by application to foliage (diluvial soil, plastic box)", "settings": "foliage application, 320 g/ha", "how_it_was_run": "as §1"}, "[2]": {"test_system": "Beta vulgaris ssp. vulgaris", "experiment": "Test Example 4: effect on crop by application to foliage (diluvial soil, plastic box)", "settings": "320 g/ha", "how_it_was_run": "as §1"}, "Brassica campestris L.": {"test_system": "Brassica campestris L.", "experiment": "Test Example 4: effect on crop by application to foliage (diluvial soil, plastic box)", "settings": "320 g/ha", "how_it_was_run": "as §1"}, "Triticum aestivum": {"test_system": "Triticum aestivum", "experiment": "Test Example 4: effect on crop by application to foliage (diluvial soil, plastic box)", "settings": "320 g/ha", "how_it_was_run": "as §1"}, "Veronica persica": {"test_system": "Veronica persica", "experiment": "Test Example 4: herbicidal effect by application to foliage (diluvial soil, plastic box)", "settings": "foliage application, 320 g/ha", "how_it_was_run": "as §1"}, "Digitaria ciliaris": {"test_system": "Digitaria ciliaris", "experiment": "Test Example 4: herbicidal effect by application to foliage (diluvial soil, plastic box)", "settings": "320 g/ha", "how_it_was_run": "as §1"}, "[3]": {"test_system": "Echinochloa crus-galli var. crus-galli", "experiment": "Test Example 4: herbicidal effect by application to foliage (diluvial soil, plastic box)", "settings": "320 g/ha", "how_it_was_run": "as §1"}, "Stellaria media": {"test_system": "Stellaria media", "experiment": "Test Example 4: herbicidal effect by application to foliage (diluvial soil, plastic box)", "settings": "320 g/ha", "how_it_was_run": "as §1"}, "Alopecurus myosuroides": {"test_system": "Alopecurus myosuroides", "experiment": "Test Example 4: herbicidal effect by application to foliage (diluvial soil, plastic box)", "settings": "320 g/ha", "how_it_was_run": "as §1"}, "Chenopodium album": {"test_system": "Chenopodium album", "experiment": "Test Example 4: herbicidal effect by application to foliage (diluvial soil, plastic box)", "settings": "320 g/ha", "how_it_was_run": "as §1"}, "Apera spica-venti.": {"test_system": "Apera spica-venti.", "experiment": "Test Example 4: herbicidal effect by application to foliage (diluvial soil, plastic box)", "settings": "320 g/ha", "how_it_was_run": "as §1"}, "Lolium multiflorum Lam.": {"test_system": "Lolium multiflorum Lam.", "experiment": "Test Example 4: herbicidal effect by application to foliage (diluvial soil, plastic box)", "settings": "320 g/ha", "how_it_was_run": "as §1"}, "Amaranthus retroflexus": {"test_system": "Amaranthus retroflexus", "experiment": "Test Example 4: herbicidal effect by application to foliage (diluvial soil, plastic box)", "settings": "320 g/ha", "how_it_was_run": "as §1"}, "Avena fatua": {"test_system": "Avena fatua", "experiment": "Test Example 4: herbicidal effect by application to foliage (diluvial soil, plastic box)", "settings": "320 g/ha", "how_it_was_run": "as §1"}, "Setaria viridis": {"test_system": "Setaria viridis", "experiment": "Test Example 4: herbicidal effect by application to foliage (diluvial soil, plastic box)", "settings": "320 g/ha", "how_it_was_run": "as §1"}, "Galium spurium": {"test_system": "Galium spurium", "experiment": "Test Example 4: herbicidal effect by application to foliage (diluvial soil, plastic box)", "settings": "320 g/ha", "how_it_was_run": "as §1"}, "Abutilon theophrasti": {"test_system": "Abutilon theophrasti", "experiment": "Test Example 4: herbicidal effect by application to foliage (diluvial soil, plastic box)", "settings": "320 g/ha", "how_it_was_run": "as §1"}, "[4]": {"test_system": "Echinochloa oryzacola Vasing.", "experiment": "Test Example 2: herbicidal activity, application during weed generation in submerged conditions", "settings": "Eighteenth Table; application herbicide amount 320 g/ha", "how_it_was_run": "(§2)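 Scored three weeks post-application on a 0–5 scale (5: ≥90% herbicidal ratio, almost withered; 0: ≤5%). Plants raised from mixed-sown seed in submerged alluvial soil (4 cm water), 25–30 °C greenhouse; water-diluted emulsion applied onto water surface at one- to two-leaf stage, dose in g/ha.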"}, "Monochoria vaginalis": {"test_system": "Monochoria vaginalis", "experiment": "Test Example 2: herbicidal activity, application during weed generation in submerged conditions", "settings": "Eighteenth Table; application herbicide amount 320 g/ha", "how_it_was_run": "as §2"}, "Scirpus juncoides": {"test_system": "Scirpus juncoides", "experiment": "Test Example 2: herbicidal activity, application during weed generation in submerged conditions", "settings": "Eighteenth Table; application herbicide amount 320 g/ha", "how_it_was_run": "as §2"}},
  "data": [
    {"smiles": "CC(C)Nc1nnc2c(C(=O)Nc3nnnn3C)ccc(C(F)(F)F)n12", "note": "[2-066]", "values": [
      {"measurement": "c (Glycine max) effect on crop grade", "setting": "Glycine max; foliage application", "result": "1 (Herbicidal ratio of 5% or more and less than 20%)"},
      {"measurement": "d (directly sowed Oryza sativa) effect on crop grade", "setting": "[1]; foliage application", "result": "4 (Herbicidal ratio of 70% or more and less than 90%)"},
      {"measurement": "b (Zea mays) effect on crop grade", "setting": "Zea mays", "result": "4 (Herbicidal ratio of 70% or more and less than 90%)"},
      {"measurement": "f (Beta vulgaris ssp. vulgaris) effect on crop grade", "setting": "[2]; foliage application", "result": "5 (Herbicidal ratio of 90% or more (almost completely withered))"},
      {"measurement": "g (Brassica campestris L.) effect on crop grade", "setting": "Brassica campestris L.; foliage application", "result": "4 (Herbicidal ratio of 70% or more and less than 90%)"},
      {"measurement": "e (Triticum aestivum) effect on crop grade", "setting": "Triticum aestivum; foliage application", "result": "3 (Herbicidal ratio of 40% or more and less than 70%)"},
      {"measurement": "R (Veronica persica) herbicidal effect grade", "setting": "Veronica persica", "result": "5 (Herbicidal ratio of 90% or more (almost completely withered))"},
      {"measurement": "F (Digitaria ciliaris) herbicidal effect grade", "setting": "Digitaria ciliaris; foliage application", "result": "5 (Herbicidal ratio of 90% or more (almost completely withered))"},
      {"measurement": "H (Echinochloa crus-galli var. crus-galli) herbicidal effect grade", "setting": "[3]; foliage application", "result": "5 (Herbicidal ratio of 90% or more (almost completely withered))"},
      {"measurement": "P (Stellaria media) herbicidal effect grade", "setting": "Stellaria media; foliage application", "result": "5 (Herbicidal ratio of 90% or more (almost completely withered))"},
      {"measurement": "J (Alopecurus myosuroides) herbicidal effect grade", "setting": "Alopecurus myosuroides; foliage application", "result": "3 (Herbicidal ratio of 40% or more and less than 70%)"},
      {"measurement": "O (Chenopodium album) herbicidal effect grade", "setting": "Chenopodium album; foliage application", "result": "5 (Herbicidal ratio of 90% or more (almost completely withered))"},
      {"measurement": "L (Apera spica-venti.) herbicidal effect grade", "setting": "Apera spica-venti.; foliage application", "result": "3 (Herbicidal ratio of 40% or more and less than 70%)"},
      {"measurement": "K (Lolium multiflorum Lam.) herbicidal effect grade", "setting": "Lolium multiflorum Lam.; foliage application", "result": "3 (Herbicidal ratio of 40% or more and less than 70%)"},
      {"measurement": "N (Amaranthus retroflexus) herbicidal effect grade", "setting": "Amaranthus retroflexus; foliage application", "result": "5 (Herbicidal ratio of 90% or more (almost completely withered))"},
      {"measurement": "I (Avena fatua) herbicidal effect grade", "setting": "Avena fatua; foliage application", "result": "2 (Herbicidal ratio of 20% or more and less than 40%)"},
      {"measurement": "G (Setaria viridis) herbicidal effect grade", "setting": "Setaria viridis; foliage application", "result": "5 (Herbicidal ratio of 90% or more (almost completely withered))"},
      {"measurement": "Q (Galium spurium) herbicidal effect grade", "setting": "Galium spurium; foliage application", "result": "3 (Herbicidal ratio of 40% or more and less than 70%)"},
      {"measurement": "M (Abutilon theophrasti) herbicidal effect grade", "setting": "Abutilon theophrasti; foliage application", "result": "4 (Herbicidal ratio of 70% or more and less than 90%)"},
      {"measurement": "A (Echinochloa oryzicola Vasing.) herbicidal ratio grade", "setting": "[4]", "result": "3 (Herbicidal ratio of 40% or more and less than 70%)"},
      {"measurement": "C (Monochoria vaginalis) herbicidal ratio grade", "setting": "Monochoria vaginalis", "result": "3 (Herbicidal ratio of 40% or more and less than 70%)"}
    ]},
    {"smiles": "Cn1nnnc1NC(=O)c1ccc(C(F)(F)F)n2c(SCC(F)(F)F)nnc12", "note": "[2-087]", "values": [
      {"measurement": "effect on crop, c (Glycine max)", "setting": "Glycine max; application to foliage", "result": "0 (Herbicidal ratio of 5% or less (almost no effect))"},
      {"measurement": "effect on crop, d (directly sowed Oryza sativa)", "setting": "[1]; application to foliage", "result": "3 (Herbicidal ratio of 40% or more and less than 70%)"},
      {"measurement": "effect on crop, f (Beta vulgaris ssp. vulgaris)", "setting": "[2]; application to foliage", "result": "5 (Herbicidal ratio of 90% or more (almost completely withered))"},
      {"measurement": "effect on crop, g (Brassica campestris L.)", "setting": "Brassica campestris L.; application to foliage", "result": "3 (Herbicidal ratio of 40% or more and less than 70%)"},
      {"measurement": "effect on crop, e (Triticum aestivum)", "setting": "Triticum aestivum; application to foliage", "result": "2 (Herbicidal ratio of 20% or more and less than 40%)"},
      {"measurement": "herbicidal effect, F (Digitaria ciliaris)", "setting": "Digitaria ciliaris; application to foliage", "result": "5 (Herbicidal ratio of 90% or more (almost completely withered))"},
      {"measurement": "herbicidal effect, H (Echinochloa crus-galli var. crus-galli)", "setting": "[3]; application to foliage", "result": "5 (Herbicidal ratio of 90% or more (almost completely withered))"},
      {"measurement": "herbicidal effect, P (Stellaria media)", "setting": "Stellaria media; application to foliage", "result": "5 (Herbicidal ratio of 90% or more (almost completely withered))"},
      {"measurement": "herbicidal effect, J (Alopecurus myosuroides)", "setting": "Alopecurus myosuroides; application to foliage", "result": "3 (Herbicidal ratio of 40% or more and less than 70%)"},
      {"measurement": "herbicidal effect, O (Chenopodium album)", "setting": "Chenopodium album; application to foliage", "result": "5 (Herbicidal ratio of 90% or more (almost completely withered))"},
      {"measurement": "herbicidal effect, L (Apera spica-venti.)", "setting": "Apera spica-venti.; application to foliage", "result": "4 (Herbicidal ratio of 70% or more and less than 90%)"},
      {"measurement": "herbicidal effect, K (Lolium multiflorum Lam.)", "setting": "Lolium multiflorum Lam.; application to foliage", "result": "3 (Herbicidal ratio of 40% or more and less than 70%)"},
      {"measurement": "herbicidal effect, N (Amaranthus retroflexus)", "setting": "Amaranthus retroflexus; application to foliage", "result": "4 (Herbicidal ratio of 70% or more and less than 90%)"},
      {"measurement": "herbicidal effect, I (Avena fatua)", "setting": "Avena fatua; application to foliage", "result": "4 (Herbicidal ratio of 70% or more and less than 90%)"},
      {"measurement": "herbicidal effect, G (Setaria viridis)", "setting": "Setaria viridis; application to foliage", "result": "4 (Herbicidal ratio of 70% or more and less than 90%)"},
      {"measurement": "herbicidal effect, Q (Galium spurium)", "setting": "Galium spurium; application to foliage", "result": "3 (Herbicidal ratio of 40% or more and less than 70%)"},
      {"measurement": "herbicidal effect, M (Abutilon theophrasti)", "setting": "Abutilon theophrasti; application to foliage", "result": "5 (Herbicidal ratio of 90% or more (almost completely withered))"},
      {"measurement": "B (Scirpus juncoides) herbicidal ratio grade", "setting": "Scirpus juncoides", "result": "4 (Herbicidal ratio of 70% or more and less than 90%)"},
      {"measurement": "A (Echinochloa oryzicola Vasing.) herbicidal ratio grade", "setting": "[4]", "result": "4 (Herbicidal ratio of 70% or more and less than 90%)"},
      {"measurement": "C (Monochoria vaginalis) herbicidal ratio grade", "setting": "Monochoria vaginalis", "result": "3 (Herbicidal ratio of 40% or more and less than 70%)"}
    ]}
  ]
}
